Assay results from the supplement of paper PMC10307832.

Legend:
Test in all cases: relative viability (nuclei count vs DMSO), 5 days (fraction); higher = more cells survive
[1] = system: EMC-BAC-2
How it was run: (§1)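 Lung cancer cell lines, seeded in 1536-well plates, were treated the following day by pin tool with a single drug or with five library-drug doses (not always all listed) in √10 steps on top of a fixed anchor-drug dose. Cells were fixed and nuclei stained in one step after 5 days, and nuclei were counted. Relative viability is the nuclei count for treated wells divided by that for vehicle wells, reported as medians of duplicate plates.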

[2] = system: CAL-12T
How it was run: as §1

[3] = system: HARA
How it was run: as §1

[4] = system: NCI-H2009
How it was run: as §1

[5] = system: HCC-366
How it was run: as §1

[6] = system: NCI-H1437
How it was run: as §1

[7] = system: NCI-H460
How it was run: as §1

[8] = system: HOP-62
How it was run: as §1

[9] = system: NCI-H23
How it was run: as §1

[10] = system: NCI-H2228
How it was run: as §1

[11] = system: LCLC-103H
How it was run: as §1

[12] = system: NCI-H1755
How it was run: as §1

[13] = system: NCI-H1395
How it was run: as §1

[14] = system: NCI-H1792
How it was run: as §1

[15] = system: COR-L 105
How it was run: as §1

[16] = system: NCI-H727
How it was run: as §1

[17] = system: SK-LU-1
How it was run: as §1

[18] = system: HCC-827
How it was run: as §1

[19] = system: A-427
How it was run: as §1

[20] = system: NCI-H1915
How it was run: as §1

[21] = system: SW 1573
How it was run: as §1

SMILES: CCN(CC)CCCCNc1ncc2cc(-c3cc(OC)cc(OC)c3)c(NC(=O)NC(C)(C)C)nc2n1 + CS(=O)(=O)N1CCN(Cc2cc3nc(-c4cccc5[nH]ncc45)nc(N4CCOCC4)c3s2)CC1 [Pictilisib] (partner 1 µM)
- relative viability ([1]; first compound 0.01 µM): 0.581
- relative viability ([1]; first compound 0.03162 µM): 0.507
- relative viability ([1]; first compound 0.1 µM): 0.546
- relative viability ([1]; first compound 0.3162 µM): 0.574
- relative viability ([1]; first compound 1 µM): 0.456
- relative viability ([2]; first compound 0.03162 µM): 0.322
- relative viability ([2]; first compound 0.1 µM): 0.386
- relative viability ([2]; first compound 0.3162 µM): 0.6
- relative viability ([2]; first compound 1 µM): 0.397
- relative viability ([3]; first compound 0.01 µM): 0.421
- relative viability ([3]; first compound 0.03162 µM): 0.356
- relative viability ([3]; first compound 0.1 µM): 0.307
- relative viability ([3]; first compound 0.3162 µM): 0.485
- relative viability ([3]; first compound 1 µM): 0.176
- relative viability ([4]; first compound 0.01 µM): 0.727
- relative viability ([4]; first compound 0.03162 µM): 0.79
- relative viability ([4]; first compound 0.1 µM): 0.824
- relative viability ([4]; first compound 0.3162 µM): 0.965
- relative viability ([4]; first compound 1 µM): 0.815
- relative viability ([5]; first compound 0.01 µM): 0.102
- relative viability ([5]; first compound 0.03162 µM): 0.177
- relative viability ([5]; first compound 0.1 µM): 0.207
- relative viability ([5]; first compound 0.3162 µM): 0.164
- relative viability ([5]; first compound 1 µM): 0.176
- relative viability ([6]; first compound 0.01 µM): 0.544
- relative viability ([6]; first compound 0.03162 µM): 0.482
- relative viability ([6]; first compound 0.1 µM): 0.424
- relative viability ([6]; first compound 0.3162 µM): 0.395
- relative viability ([6]; first compound 1 µM): 0.392
- relative viability ([7]; first compound 0.01 µM): 0.311
- relative viability ([7]; first compound 0.03162 µM): 0.258
- relative viability ([7]; first compound 0.1 µM): 0.417
- relative viability ([7]; first compound 0.3162 µM): 0.382
- relative viability ([7]; first compound 1 µM): 0.395
- relative viability ([8]; first compound 0.01 µM): 0.732
- relative viability ([8]; first compound 0.03162 µM): 0.772
- relative viability ([8]; first compound 0.1 µM): 0.582
- relative viability ([8]; first compound 0.3162 µM): 0.747
- relative viability ([8]; first compound 1 µM): 0.985
- relative viability ([9]; first compound 0.01 µM): 0.414
- relative viability ([9]; first compound 0.03162 µM): 0.411
- relative viability ([9]; first compound 0.1 µM): 0.463
- relative viability ([9]; first compound 0.3162 µM): 0.37
- relative viability ([9]; first compound 1 µM): 0.435
- relative viability ([10]; first compound 0.01 µM): 0.441
- relative viability ([10]; first compound 0.03162 µM): 0.311
- relative viability ([10]; first compound 0.1 µM): 0.353
- relative viability ([10]; first compound 0.3162 µM): 0.539
- relative viability ([10]; first compound 1 µM): 0.246
- relative viability ([11]; first compound 0.01 µM): 0.551
- relative viability ([11]; first compound 0.03162 µM): 0.661
- relative viability ([11]; first compound 0.1 µM): 0.595
- relative viability ([11]; first compound 0.3162 µM): 0.553
- relative viability ([11]; first compound 1 µM): 0.443
- relative viability ([12]; first compound 0.01 µM): 0.403
- relative viability ([12]; first compound 0.03162 µM): 0.386
- relative viability ([12]; first compound 0.1 µM): 0.479
- relative viability ([12]; first compound 0.3162 µM): 0.381
- relative viability ([12]; first compound 1 µM): 0.258
- relative viability ([13]; first compound 0.03162 µM): 0.486
- relative viability ([13]; first compound 0.1 µM): 0.949
- relative viability ([13]; first compound 0.3162 µM): 0.479
- relative viability ([13]; first compound 1 µM): 0.346
- relative viability ([14]; first compound 0.01 µM): 0.249
- relative viability ([14]; first compound 0.03162 µM): 0.282
- relative viability ([14]; first compound 0.1 µM): 0.241
- relative viability ([14]; first compound 0.3162 µM): 0.265
- relative viability ([14]; first compound 1 µM): 0.225
- relative viability ([15]; first compound 0.01 µM): 0.368
- relative viability ([15]; first compound 0.03162 µM): 0.394
- relative viability ([15]; first compound 0.1 µM): 0.418
- relative viability ([15]; first compound 0.3162 µM): 0.445
- relative viability ([15]; first compound 1 µM): 0.392
- relative viability ([16]; first compound 0.01 µM): 0.413
- relative viability ([16]; first compound 0.03162 µM): 0.417
- relative viability ([16]; first compound 0.1 µM): 0.362
- relative viability ([16]; first compound 0.3162 µM): 0.627
- relative viability ([16]; first compound 1 µM): 0.41
- relative viability ([17]; first compound 0.01 µM): 0.483
- relative viability ([17]; first compound 0.03162 µM): 0.427
- relative viability ([17]; first compound 0.1 µM): 0.526
- relative viability ([17]; first compound 0.3162 µM): 0.527
- relative viability ([17]; first compound 1 µM): 0.393
- relative viability ([18]; first compound 0.01 µM): 1.03
- relative viability ([18]; first compound 0.03162 µM): 0.992
- relative viability ([18]; first compound 0.1 µM): 0.886
- relative viability ([18]; first compound 0.3162 µM): 1.06
- relative viability ([18]; first compound 1 µM): 1.02
- relative viability ([19]; first compound 0.01 µM): 0.704
- relative viability ([19]; first compound 0.03162 µM): 0.657
- relative viability ([19]; first compound 0.1 µM): 0.769
- relative viability ([19]; first compound 0.3162 µM): 0.671
- relative viability ([19]; first compound 1 µM): 0.353
- relative viability ([20]; first compound 0.01 µM): 0.998
- relative viability ([20]; first compound 0.03162 µM): 0.92
- relative viability ([20]; first compound 0.1 µM): 0.93
- relative viability ([20]; first compound 0.3162 µM): 1.03
- relative viability ([20]; first compound 1 µM): 0.915
- relative viability ([21]; first compound 0.01 µM): 0.528
- relative viability ([21]; first compound 0.03162 µM): 0.48
- relative viability ([21]; first compound 0.1 µM): 0.615
- relative viability ([21]; first compound 0.3162 µM): 0.66
- relative viability ([21]; first compound 1 µM): 0.507
